Data published in EP4745124A1, “NAPHTHALIMIDE-BASED CORONAVIRUS PAPAIN-LIKE PROTEASE INHIBITOR” (Guangzhou National Laboratory, priority 2023, dated 2025).
Where two headings read alike, the source gives them in different places.

What was measured:
SARS-CoV-2 PL^Pro = molecular target: T1, SARS-CoV-2 PL^Pro (Severe acute respiratory syndrome coronavirus 2, UniProt P0DTD1); test: biochemical
T1 construct: SARS-CoV-2 PL^Pro catalytic domain (746-1060); made in house

SARS-CoV-2 WT = test: Anti-viral activity evaluation in SARS-CoV-2 infected Vero-E6 cell model (qRT-PCR viral copy numbers); type: cell-based; details: Severe acute respiratory syndrome coronavirus 2, Vero C1008, 48 h, read-out: SARS-Cov-2 WT EC50 (µM)
SARS-Cov-2 XBB.1 = test: microbe, parasite or virus in culture; type: cell-based; details: Severe acute respiratory syndrome coronavirus 2, Vero C1008, 48 h, read-out: SARS-Cov-2 XBB.1 EC50 (µM)
SARS-Cov-2 Omicron BA.5 = test: microbe, parasite or virus in culture; type: cell-based; details: Severe acute respiratory syndrome coronavirus 2, Vero C1008, 48 h, read-out: SARS-Cov-2 Omicron BA.5 EC50 (µM)
[1] = SARS-CoV-2 PLPro catalytic domain (746-1060), 10 minutes pre-incubation, read-out: PLpro IC50

Structure (SMILES) | IC50 (SARS-CoV-2 PL^Pro; read-out: PLpro IC50) [nM] | IC50 (SARS-CoV-2 PL^Pro; [1]) [nM] | other results
Cc1ccc(N2CC3CC(C2)N3)cc1C(=O)NC1(c2ccc3c4c(cccc24)C(=O)N3C)CC1 [Compound P5, 5-(3,6-diazabicyclo[3.1.1]heptan-3-yl)-2-methyl-N-(1-(1-methyl-2-oxo-1,2-dihydrobenzo[cd]indol-6-yl)cyclopropyl)be nzamide] |  |  | IC50 (SARS-CoV-2 PL^Pro): < 40 nM; EC50 (SARS-CoV-2 WT): < 0.04 µM; EC50 (SARS-Cov-2 XBB.1): 0.04 to 0.1 µM; EC50 (SARS-Cov-2 Omicron BA.5): 0.1 to 1 µM
Cc1ccc(C2=CCN(C)CC2)cc1C(=O)NC1(c2ccc3c4c(cccc24)C(=O)N3C)CC1 [Compound P7, 2-Methyl-5-(1-methyl-1,2,3,6-tetrahydropiperidin-4-yl)-N-(1-(1-methyl-2-oxo-1,2-dihydrobenzo[cd]indol-6-yl)cyclopropyl)benzamide] |  |  | IC50 (SARS-CoV-2 PL^Pro): < 40 nM; EC50 (SARS-CoV-2 WT): 0.1 to 1 µM; EC50 (SARS-Cov-2 XBB.1): 0.1 to 1 µM; EC50 (SARS-Cov-2 Omicron BA.5): 0.1 to 1 µM
Cc1ccc(N2CC3CC(C2)N3C)cc1C(=O)NC1(c2ccc3c4c(cccc24)C(=O)N3C)CC1 [Compound P11, 2-methyl-N-(1-(1-methyl-2-oxo-1,2-dihydrobenzo[cd]indol-6-yl)cyclopropyl)-5-(6-methyl-3,6-diazabicyclo[3.1.1]heptan-3-yl)benzamide] |  |  | IC50 (SARS-CoV-2 PL^Pro): < 40 nM; EC50 (SARS-CoV-2 WT): 0.1 to 1 µM; EC50 (SARS-Cov-2 XBB.1): 0.04 to 0.1 µM; EC50 (SARS-Cov-2 Omicron BA.5): 0.1 to 1 µM
CC(C)N1C(=O)c2cccc3c(C4(NC(=O)c5cccc(N6CC7CC(C6)N7)c5)CC4)ccc1c23 [Compound P16, 5-(3,6-diazabicyclo[3.1.1]heptan-3-yl)-N-(1-(1-isopropyl-2-oxo-1,2-dihydrobenzo[cd]indol-6-yl)cyclopropyl)benzamide] | < 40 |  | EC50 (SARS-CoV-2 WT): 0.1 to 1 µM; EC50 (SARS-Cov-2 XBB.1): 0.04 to 0.1 µM; EC50 (SARS-Cov-2 Omicron BA.5): 0.1 to 1 µM
Cc1ccc(N2CC(N3CCC(C)(O)CC3)C2)cc1C(=O)NC1(c2ccc3c4c(cccc24)C(=O)N3C)CC1 [Compound P17, 5-(3-(4-Hydroxy-4-methylpiperidin-1-yl)azetidin-1-yl)-2-methyl-N-(1-(1-methyl-2-oxo-1,2-dihydrobenzo[cd]indol-6-yl)cyclopropyl)benzamide] |  | < 40 | EC50 (SARS-CoV-2 WT): < 0.04 µM; EC50 (SARS-Cov-2 XBB.1): 0.04 to 0.1 µM; EC50 (SARS-Cov-2 Omicron BA.5): 0.1 to 1 µM
Cc1ccc(N2CC(N3CCC(F)(F)CC3)C2)cc1C(=O)NC1(c2ccc3c4c(cccc24)C(=O)N3C)CC1 [Compound P31, 5-(3-(4,4-difluoropiperidin-1-yl)azetidin-1-yl)-2-methyl-N-(1-(1-methyl-2-oxo-1,2-dihydrobenzo[cd]indol-6-yl)cyclopropyl)benzamide] |  | 40 to 100 | 
Cc1ccc(N2CC(N3CCC(O)CC3)C2)cc1C(=O)NC1(c2ccc3c4c(cccc24)C(=O)N3C)CC1 [Compound P32, 5-(3-(4-hydroxypiperidin-1-yl)azetidin-1-yl)-2-methyl-N-(1-(1-methyl-2-oxo-1,2-dihydrobenzo[cd]indol-6-yl)cyclopropyl)benzamide] |  | < 40 | 
Cc1ccc(N2CC(N3CCOC(C)(C)C3)C2)cc1C(=O)NC1(c2ccc3c4c(cccc24)C(=O)N3C)CC1 [Compound P33, 5-(3-(2,2-dimethylmorpholinyl)azetidin-1-yl)-2-methyl-N-(1-(1-methyl-2-oxo-1,2-dihydrobenzo[cd]indol-6-yl)cyclopropyl)benzamide] | 100 to 1000 |  | 
Cc1ccc(N2CC(N3CCCCC3C)C2)cc1C(=O)NC1(c2ccc3c4c(cccc24)C(=O)N3C)CC1 (centres unmarked) [Compound P34, 2-Methyl-N-(1-(1-methyl-2-oxo-1,2-dihydrobenzo[cd]indol-6-yl)cyclopropyl)-5-(3-(2-methylpiperidin-1-yl)azetidin-1-yl)benzamide] |  | < 40 | 
Cc1ccc(N2CC(N3CCS(=O)(=O)CC3)C2)cc1C(=O)NC1(c2ccc3c4c(cccc24)C(=O)N3C)CC1 [Compound P35, 5-(3-(1,1-dioxothiomorpholin)azetidin-1-yl)-2-methyl-N-(1-(1-methyl-2-oxo-1,2-dihydrobenzo[cd]indol-6-yl)cyclopropyl)benzamide] | 100 to 1000 |  | 
Cc1ccc(N2CC[C@H](N(C)C(C)C)C2)cc1C(=O)NC1(c2ccc3c4c(cccc24)C(=O)N3C)CC1 [Compound P36] | < 40 |  | 
Cc1ccc(N2CCC(N3CCCC3)C2)cc1C(=O)NC1(c2ccc3c4c(cccc24)C(=O)N3C)CC1 (centres unmarked) [Compound P37, 5-([1,3'-dipyrrolidin]-1'-yl)-2-methyl-N-(1-(1-methyl-2-oxo-1,2-dihydrobenzo[cd]indol-6-yl)cyclopropyl)benzamide] | 40 to 100 |  | 
Cc1ccc(N2CCC(CN3CCOCC3)CC2)cc1C(=O)NC1(c2ccc3c4c(cccc24)C(=O)N3C)CC1 [Compound P38, 2-Methyl-N-(1-(1-methyl-2-oxo-1,2-dihydrobenzo[cd]indol-6-yl)cyclopropyl)-5-(4-(morpholinomethyl)piperidin-1-yl)b enzamide] |  | 100 to 1000 | 
Cc1ccc(N2CC3CCCN(C)C3C2)cc1C(=O)NC1(c2ccc3c4c(cccc24)C(=O)N3C)CC1 (centres unmarked) [Compound P39, 2-Methyl-N-(1-(1-methyl-2-oxo-1,2-dihydrobenzo[cd]indol-6-yl)cyclopropyl)-5-(1-methyloctahydro-6H-pyrrolo[3,4-b]pyridin-6-yl)benzamide] |  | < 40 | 
Cc1ccc(N2C[C@H]3C[C@@H]2CN3C)cc1C(=O)NC1(c2ccc3c4c(cccc24)C(=O)N3C)CC1 [Compound P40, 2-Methyl-N-(1-(1-methyl-2-oxo-1,2-dihydrobenzo[cd]indol-6-yl)cyclopropyl)-5-((1R,4R)-5-methyl-2,5-diazabicyclo[2. 2.1]heptan-2-yl)benzamide] |  | < 40 | 
Cc1ccc(N2CCN(CC(C)O)CC2)cc1C(=O)NC1(c2ccc3c4c(cccc24)C(=O)N3C)CC1 (centres unmarked) [Compound P41, 5-(4-(2-hydroxypropyl)piperazin-1-yl)-2-methyl-N-(1-(1-methyl-2-oxo-1,2-dihydrobenzo[cd]indol-6-yl)cyclopropyl)be nzamide] |  | < 40 | 
Cc1ccc(N2CC(N3CCC3)C2)cc1C(=O)NC1(c2ccc3c4c(cccc24)C(=O)N3C)CC1 [Compound P42, 5-([1,3'-diazetidin]-1'-yl)-2-methyl-N-(1-(1-methyl-2-oxo-1,2-dihydrobenzo[cd]indol-6-yl)cyclopropyl)benzamide] | < 40 |  | 
Cc1ccc(N2CC(N3CCC(O)C3)C2)cc1C(=O)NC1(c2ccc3c4c(cccc24)C(=O)N3C)CC1 (centres unmarked) [Compound P43, 5-(3-(3-hydroxypyrrolidin-1-yl)azetidin-1-yl)-2-methyl-N-(1-(1-methyl-2-oxo-1,2-dihydrobenzo[cd]indol-6-yl)cyclopropyl)benzamide] |  | < 40 | 
Cc1ccc(N2CC(N3CCN(C)C(=O)C3)C2)cc1C(=O)NC1(c2ccc3c4c(cccc24)C(=O)N3C)CC1 [Compound P44, 2-Methyl-N-(1-(1-methyl-2-oxo-1,2-dihydrobenzo[cd]indol-6-yl)cyclopropyl)-5-(3-(4-methyl-3-oxopiperazin-1-yl)azetidin-1-yl)benzamide] |  | 100 to 1000 | 
Cc1ccc(N2CC(N3CCCC3)C2)cc1C(=O)NC1(c2ccc3c4c(cccc24)C(=O)N3C)CC1 [Compound P45, 2-methyl-N-(1-(1-methyl-2-oxo-1,2-dihydrobenzo[cd]indol-6-yl)cyclopropyl)-5-(3-(pyrrolidin-1-yl)azetidin-1-yl)benzamide] |  | < 40 | 
Cc1ccc(N2CC(N3CCOCC3)C2)cc1C(=O)NC1(c2ccc3c4c(cccc24)C(=O)N3C)CC1 [Compound P46, 2-methyl-N-(1-(1-methyl-2-oxo-1,2-dihydrobenzo[cd]indol-6-yl)cyclopropyl)-5-(3-morpholinazetidin-1-yl)benzamide] | 100 to 1000 |  | 
Cc1ccc(N2CC3CCN(C)C3C2)cc1C(=O)NC1(c2ccc3c4c(cccc24)C(=O)N3C)CC1 (centres unmarked) [Compound P47] | < 40 |  | 
Cc1ccc(N2CCC(N3CCCC3)C(F)(F)C2)cc1C(=O)NC1(c2ccc3c4c(cccc24)C(=O)N3C)CC1 (centres unmarked) [Compound P48, 5-(3,3-difluoro-4-(pyrrolidin-1-yl)piperidin-1-yl)-2-methyl-N-(1-(1-methyl-2-oxo-1,2-dihydrobenzo[cd]indol-6-yl)cyclopropyl)benzamide] |  | 100 to 1000 | 
Cc1ccc(N2CCN(CC(C)(C)O)CC2)cc1C(=O)NC1(c2ccc3c4c(cccc24)C(=O)N3C)CC1 [Compound P49, 5-(4-(2-Hydroxy-2-methylpropyl)piperazin-1-yl)-2-methyl-N-(1-(1-methyl-2-oxo-1,2-dihydrobenzo[cd]indol-6-yl)cyclopropyl)benzamide] |  | < 40 | 
Cc1ccc(N2CCC(N3CCCCC3)C2)cc1C(=O)NC1(c2ccc3c4c(cccc24)C(=O)N3C)CC1 (centres unmarked) [Compound P50, 2-Methyl-N-(1-(1-methyl-2-oxo-1,2-dihydrobenzo[cd]indol-6-yl)cyclopropyl)-5-(3-(piperidin-1-yl)pyrrolidin-1-yl)benz amide] |  | < 40 | 
Cc1ccc(N2CCN(CCCS(C)(=O)=O)CC2)cc1C(=O)NC1(c2ccc3c4c(cccc24)C(=O)N3C)CC1 [Compound P51] | 40 to 100 |  | 
Cc1ccc(N2CCN(CCN(C)C)CC2)cc1C(=O)NC1(c2ccc3c4c(cccc24)C(=O)N3C)CC1 [Compound P52, 5-(4-(2-(Dimethylamino)ethyl)piperazin-1-yl)-2-methyl-N-(1-(1-methyl-2-oxo-1,2-dihydrobenzo[cd]indol-6-yl)cyclopropyl)benzamide] |  | 100 to 1000 | 
Cc1ccc(N2CCN(CCO)CC2)cc1C(=O)NC1(c2ccc3c4c(cccc24)C(=O)N3C)CC1 [Compound P53, 5-(4-(2-Hydroxyethyl)piperazin-1-yl)-2-methyl-N-(1-(1-methyl-2-oxo-1,2-dihydrobenzo[cd]indol-6-yl)cyclopropyl)ben zamide] |  | 40 to 100 | 
Cc1ccc(N2CC(N3CC(F)C3)C2)cc1C(=O)NC1(c2ccc3c4c(cccc24)C(=O)N3C)CC1 [Compound P54, 5-(3-Fluoro-[1,3'-diazetidinyl]-1'-yl)-2-methyl-N-(1-(1-methyl-2-oxo-1,2-dihydrobenzo[cd]indol-6-yl)cyclopropyl)ben zamide] | 40 to 100 |  | 
